{"source": "patent US20240082219A1", "about": "“METHODS FOR AMELIORATING AND PREVENTING AGE-RELATED MUSCLE DEGENERATION” (NANJING NUTRABUILDING BIO-TECH CO., LTD., priority 2021, published 2024)", "key": {"[1]": {"assay": "Body weight and body composition (lean mass ratio) of old mice", "format": "in vivo, C57BL/6J mice", "settings": "old mice, 5, 15 or 45 mg/kg/day by gavage for 4 months, vs OM group", "method": "The healthy and male C57BL/6J mice at 20 months of age (Old Mice, OM) and at 2 months of age (Young Mice, YM) were maintained under the barrier conditions in a temperature-controlled environment and fed a commercial mouse chow. They were divided into the following five groups: (1) non-supplement young mice group (YM, n=5); (2) non-supplement old mice group (OM, n=5); (3)L-Ergothioneine supplement group with low dosage (OM+5 mg/kg/day, n=5); (4) L-Ergothioneine supplement group with moderate dosage (OM+15 mg/kg/day, n=5); and(5) L-Ergothioneine supplement group with high dosage (OM+45 mg/kg/day, n=5). All mice were administered L-Ergothioneine for once daily by gavage in normal saline solution for 4 months. Mice were euthanized by CO2 inhalation followed by cervical dislocation at the end of study and skeletal muscles were excised for an immediate isolation of mitochondria. The bodyweight of C57BL/6 mice was recorded before treatment, once per week during the study, and at the end of the study. Body composition (lean mass ratio) of mice was analyzed using the (NM42-[…]-1 system, Suzhou Niumag) before treatment, once per month during the study, and at the end of the study. […] Statistical significance was determined using one-way ANOVA followed by Tukey's post hoc test (N=5, *P<0.05, **P<0.01, vs OM Group)."}, "[2]": {"test_system": "C57BL/6J mice at 20 months of age (Old Mice, OM)", "assay": "Tissue weights of soleus and gastrocnemius muscle, age-induced muscle loss", "format": "in vivo", "settings": "after 4 months administration by gavage, vs OM group", "method": "The healthy and male C57BL/6J mice at 20 months of age (Old Mice, OM) and at 2 months of age (Young Mice, YM) were maintained under the barrier conditions in a temperature-controlled environment and fed a commercial mouse chow. They were divided into the following five groups: (1) non-supplement young mice group (YM, n=5); (2) non-supplement old mice group (OM, n=5); (3)L-Ergothioneine supplement group with low dosage (OM+5 mg/kg/day, n=5); (4) L-Ergothioneine supplement group with moderate dosage (OM+15 mg/kg/day, n=5); and(5) L-Ergothioneine supplement group with high dosage (OM+45 mg/kg/day, n=5). All mice were administered L-Ergothioneine for once daily by gavage in normal saline solution for 4 months. Mice were euthanized by CO2 inhalation followed by cervical dislocation at the end of study and skeletal muscles were excised for an immediate isolation of mitochondria. FIGS. 1A-1D show the test results related to effect of EGT treatment on age-induced muscle loss in mice monthly, particularly regarding body weight measurement (FIG. 1A), lean mass ratio (FIG. 1B), tissue weights of soleus muscle (FIG. 1C), and tissue weights of gastrocnemius muscle (FIG. 1D). Statistical significance was determined using one-way ANOVA followed by Tukey's post hoc test (N=5, *P<0.05, **P<0.01, vs OM Group)."}, "[3]": {"test_system": "C57BL/6J mice at 20 months of age (Old Mice, OM)", "assay": "Forelimb grip strength (grip strength meter)", "format": "in vivo", "settings": "once daily by gavage for 4 months, vs OM group", "method": "(§1) The healthy and male C57BL/6J mice at 20 months of age (Old Mice, OM) and at 2 months of age (Young Mice, YM) were maintained under the barrier conditions in a temperature-controlled environment and fed a commercial mouse chow. They were divided into the following five groups: (1) non-supplement young mice group (YM, n=5); (2) non-supplement old mice group (OM, n=5); (3)L-Ergothioneine supplement group with low dosage (OM+5 mg/kg/day, n=5); (4) L-Ergothioneine supplement group with moderate dosage (OM+15 mg/kg/day, n=5); and(5) L-Ergothioneine supplement group with high dosage (OM+45 mg/kg/day, n=5). All mice were administered L-Ergothioneine for once daily by gavage in normal saline solution for 4 months. Mice were euthanized by CO2 inhalation followed by cervical dislocation at the end of study and skeletal muscles were excised for an immediate isolation of mitochondria. Forelimb grip strength were analyzed using the rip strength meter (Bioseb, BIO-GS3) with mouse-specific wire grid (100×80 mm, angled 90° (vertical)), once per month during the study and at the end of the study. […] Statistical significance was determined using one-way ANOVA followed by Tukey's post hoc test (N=5, *P<0.05, **P<0.01, ***P<0.001 vs OM Group)."}, "[4]": {"test_system": "C57BL/6J mice at 20 months of age (Old Mice, OM)", "assay": "Motor coordination on rotating rod (Time to Fall)", "format": "in vivo", "settings": "once daily by gavage for 4 months, vs OM group", "method": "The healthy and male C57BL/6J mice at 20 months of age (Old Mice, OM) and at 2 months of age (Young Mice, YM) were maintained under the barrier conditions in a temperature-controlled environment and fed a commercial mouse chow. They were divided into the following five groups: (1) non-supplement young mice group (YM, n=5); (2) non-supplement old mice group (OM, n=5); (3)L-Ergothioneine supplement group with low dosage (OM+5 mg/kg/day, n=5); (4) L-Ergothioneine supplement group with moderate dosage (OM+15 mg/kg/day, n=5); and(5) L-Ergothioneine supplement group with high dosage (OM+45 mg/kg/day, n=5). All mice were administered L-Ergothioneine for once daily by gavage in normal saline solution for 4 months. Mice were euthanized by CO2 inhalation followed by cervical dislocation at the end of study and skeletal muscles were excised for an immediate isolation of mitochondria. Motor coordination deficits were performed by placing the mouse on a rotating rod (Beijing Zhishuduobao, DB093) and measuring how long it takes before mice fall off the rod (Time to Fall (s)). […] Statistical significance was determined using one-way ANOVA followed by Tukey's post hoc test (N=5, *P<0.05, **P<0.01, vs OM Group)."}, "[5]": {"test_system": "skeletal muscles mitochondria", "assay": "ATP production, O2 consumption and P/O ratio in skeletal muscle mitochondria from treated mice", "format": "in vivo, C57BL/6J mice", "settings": "isolated skeletal muscle mitochondria of old mice treated for 4 months, vs OM group", "method": "as §1, with “mitochondria. Extracting skeletal muscles mitochondria from mice to measure ATP production and O2 consumption. ATP production was measured using a luciferase/luciferin based system. O2 consumption was measured using optical spectra. The all data” for “mitochondria. Forelimb grip strength”, “analyzed to identify” for “analyzed using”, “the L-Ergothioneine function for improving ATP production” for “the rip strength meter (Bioseb, BIO-GS3) with mouse-specific wire grid (100×80 mm, angled 90° (vertical)), once per month during the study”, “and O2 consumption.” for “and at the end of the study.”"}}, "data": [{"smiles": "C[N+](C)(C)[C@@H](Cc1c[nH]c(=S)[nH]1)C(=O)[O-]", "note": "[L-Ergothioneine]", "values": [{"measurement": "body composition (lean mass ratio)", "setting": "[1]", "result": "no significant difference"}, {"measurement": "body weight", "setting": "[1]", "result": "no significant difference"}, {"measurement": "weight of the gastrocnemius muscle", "setting": "[2]", "result": "prevented this reduction"}, {"measurement": "weight of the soleus muscle", "setting": "[2]", "result": "prevented this reduction"}, {"measurement": "forelimb grip strength", "setting": "[3]", "result": "ameliorating and preventing the loss of muscle grip strength"}, {"measurement": "time on rotating rod (Time to Fall)", "setting": "[4]", "result": "prolong time of maintain on a rotating rod"}, {"measurement": "ATP synthesis", "setting": "[5]", "result": "increase of ATP synthesis"}, {"measurement": "P/O ratio (ATP produced per O2 consumed)", "setting": "[5]", "result": "increase of ATP synthesis and P/O ratio"}]}]}
